In patent publication US11149004B2, “Crystalline form of EB-1020, processes for preparation and use thereof” (priority 2017, dated 2021):
Entries after “also recorded” stand apart in the source; their conditions may differ. Like-named read-outs stand apart in the source and are kept apart here. Marks after values point to notes of the source that are not given here.

Key:
[1] = Adhesiveness of Form CS1 (material sticking to the punch); assay type: physicochemical
Experimental: 30 mg of Form CS1 were weighed and then added into the dies of φ8 mm round tooling, compressed at 10 KN and held for 30s. The punch was weighed and the amount of material sticking to the punch was calculated. The compression was repeated twice and the cumulative amount, maximum amount and average amount of material sticking to the punch during the compression were recorded.

[2] = Grinding stability of Form CS1, prior art Form A and Form B; assay type: physicochemical; settings: ground manually for 5 minutes in a mortar, XRPD, hydrochloride
Experimental: A certain amount of Form CS1, prior art Form A and Form B were ground manually for 5 minutes in a mortar. The XRPD patterns of Form CS1 before and after grinding are as depicted in FIG. 8 (top: before grinding; bottom: after grinding). The XRPD patterns of prior art Form A before and after grinding are as depicted in FIG. 9 (top: before grinding; bottom: after grinding). The XRPD patterns of prior art Form B before and after grinding are as depicted in FIG. 10 (top: before grinding; bottom: after grinding).

[3] = Compressibility of Form CS1 (tensile strength); assay type: physicochemical
Experimental: A manual tablet press was used for compression. A certain amount of Form CS1 were added into the dies of round tooling and compressed at certain pressure manually, the tablet was stored in a desiccator for 24 h until complete elastic recovery. Hardness (H) was tested with an Intelligent Tablet Hardness Tester. Diameter (D) and thickness (L) were tested with a caliper. Tensile strength of the powder was calculated with the following formula: T=2H/πDL. Under a certain force, the greater the tensile strength, the better the compressibility.

[4] = Morphology (polarizing microscope, PLM); assay type: physicochemical
Excerpt: Morphology of Form CS1 of the present disclosure was checked by a polarizing microscope (PLM), and the PLM image is shown in FIG. 11. […] Form CS1 has better flowability and is more suitable for processing and preparing drug product.

[5] = Kinetic solubility in FaSSIF and FeSSIF; assay type: physicochemical; settings: for Solubility (mg/mL) eSSIF / Solubility (mg/mL) FaSSIF: hydrochloride
Excerpt: High Performance Liquid Chromatography (HPLC) data for solubility test in the present disclosure were collected from an Agilent 1260 with Diode Array Detector (DAD). The method parameters are as follows:
Simulated gastrointestinal fluids such as FaSSIF (Fasted state simulated intestinal fluids) and FeSSIF (Fed state simulated intestinal fluids) are biorelevant media. Solubility in such media is close to in vivo solubility, because these media can reflect the effects of intestinal environment on drug release better.
A certain amount of Form CS1, prior art Form A and Form B were suspended in FaSSIF and FeSSIF to get saturated solutions. After equilibration for 4 h, concentrations (mg/mL) of the saturated solutions were measured by HPLC.

[6] = Physical stability of Form CS1 under different pressures (tableting); assay type: physicochemical; settings: for Crystalline form after tableting: XRPD
Excerpt: A certain amount of Form CS1 were compressed into pellets under different pressures with suitable tableting die. Crystalline forms before and after tableting were checked by XRPD.

[7] = according to WO2016205762A paragraph [00179]; cited from earlier work
[8] = 40° C./75% RH, two weeks; per WO2016205762A paragraph [00232]; cited from earlier work
[9] = Storage stability of prior art Form C; assay type: physicochemical; settings: room temperature, a month; found by the inventors
Excerpt: The prior art WO2016205762A disclosed Form A, Form B and Form C of EB-1020.

[10] = 30 mg, φ8 mm round tooling, 10 KN, held 30s
[11] = φ6 mm round tooling, 80 mg, 10 kN, after 24 h elastic recovery
[12] = FaSSIF, equilibration 4 h, HPLC

Cl.c1ccc2cc([C@]34CNC[C@H]3C4)ccc2c1 [Form CS1, (1R,5S)-1-(naphthalen-2-yl)-3-azabicyclo[3.1.0]hexane hydrochloride]
Adhesiveness [1]: low adhesiveness
Average amount (mg) of material sticking to the punch [1, 10]: 0* mg
Cumulative amount (mg) of material sticking to the punch [1, 10]: 0* mg
Maximum amount (mg) of material sticking to the punch [1, 10]: 0.07 mg
Crystalline form after grinding [2]: remains unchanged
Crystallinity after grinding [2]: remained substantially unchanged; also recorded: little change in crystallinity
Compressibility [3]: good compressibility
Tensile strength (MPa) ([3]; T=2H/πDL, φ6 mm round tooling, 80 mg, 10 kN): 1.04 MPa
Diameter (mm) [3, 11]: 6.95 mm
Thickness (mm) [3, 11]: 2.40 mm
Morphology [4]: spherical or short rod-like crystal
solubility at 4 h ([5]; FaSSIF (fasted state simulated intestinal fluid), fassif, thermodynamic from solid, FaSSIF, equilibration 4 h, HPLC, read-out: Solubility (mg/mL) FaSSIF): 75.3 mg/mL
Solubility compared with prior art Form A and Form B ([5]; FaSSIF and FeSSIF): higher
Solubility relative to prior art Form A and Form B ([5]; FeSSIF): almost twice
Solubility (mg/mL) eSSIF ([5]; equilibration 4 h, HPLC): 74.8 mg/mL
Crystalline form after tableting ([6]; Pressure 3 kN): Form CS1
Crystalline form after tableting ([6]; Pressure 7 kN): Form CS1
Crystalline form after tableting ([6]; Pressure 14 kN): Form CS1
Crystalline form after compression into tablets under different pressures ([6]; different pressures): remains unchanged

Cl.c1ccc2cc([C@]34CNC[C@H]3C4)ccc2c1 [prior art Form B, (1R,5S)-1-(naphthalen-2-yl)-3-azabicyclo[3.1.0]hexane hydrochloride, reference compound]
Crystalline form after grinding [2]: changed
Crystalline form after grinding ([2]; listed as Form B): partially converts to Form A
Solubility (mg/mL) FaSSIF [5, 12]: 52.0 mg/mL
Solubility (mg/mL) eSSIF ([5]; equilibration 4 h, HPLC): 29.2 mg/mL
Morphology [7]: needle-like crystals

Cl.c1ccc2cc([C@]34CNC[C@H]3C4)ccc2c1 [Form C, (1R,5S)-1-(naphthalen-2-yl)-3-azabicyclo[3.1.0]hexane hydrochloride]
Crystalline form after storage [8]: converted to a mixture of Form A and Form B
Crystalline form after storage [9]: converted to Form A

Cl.c1ccc2cc([C@]34CNC[C@H]3C4)ccc2c1 [prior art Form A, (1R,5S)-1-(naphthalen-2-yl)-3-azabicyclo[3.1.0]hexane hydrochloride, reference compound]
Crystallinity after grinding [2]: decreased obviously
Crystallinity after grinding ([2]; listed as Form A): obvious decrease of crystallinity
Solubility (mg/mL) FaSSIF [5, 12]: 46.9 mg/mL
Solubility (mg/mL) eSSIF ([5]; equilibration 4 h, HPLC): 36.0 mg/mL
Morphology [7]: needle-like crystals
